ChEMBL document CHEMBL5523671, “ω-(5-Phenyl-2H-tetrazol-2-yl)alkyl-substituted glycine amides and related compounds as inhibitors of the amine oxidase vascular adhesion protein-1 (VAP-1)” (Bioorg Med Chem, 2024)
The source made the active and inactive calls. The rule behind the calls is not given here.

Legend:
[1] = target: T1, Amine oxidase [copper-containing] 3 (Bos taurus, UniProt Q9TTK6); test: Inhibition of bovine plasma VAP-1 using 6-(5-Pheny1-2H-tetrazol-2-yl)hexan-1-amine as substrate measured after 30 mins by UV-HPLC analysis; assay type: cell-free
T1 sequence (Q9TTK6 whole entry): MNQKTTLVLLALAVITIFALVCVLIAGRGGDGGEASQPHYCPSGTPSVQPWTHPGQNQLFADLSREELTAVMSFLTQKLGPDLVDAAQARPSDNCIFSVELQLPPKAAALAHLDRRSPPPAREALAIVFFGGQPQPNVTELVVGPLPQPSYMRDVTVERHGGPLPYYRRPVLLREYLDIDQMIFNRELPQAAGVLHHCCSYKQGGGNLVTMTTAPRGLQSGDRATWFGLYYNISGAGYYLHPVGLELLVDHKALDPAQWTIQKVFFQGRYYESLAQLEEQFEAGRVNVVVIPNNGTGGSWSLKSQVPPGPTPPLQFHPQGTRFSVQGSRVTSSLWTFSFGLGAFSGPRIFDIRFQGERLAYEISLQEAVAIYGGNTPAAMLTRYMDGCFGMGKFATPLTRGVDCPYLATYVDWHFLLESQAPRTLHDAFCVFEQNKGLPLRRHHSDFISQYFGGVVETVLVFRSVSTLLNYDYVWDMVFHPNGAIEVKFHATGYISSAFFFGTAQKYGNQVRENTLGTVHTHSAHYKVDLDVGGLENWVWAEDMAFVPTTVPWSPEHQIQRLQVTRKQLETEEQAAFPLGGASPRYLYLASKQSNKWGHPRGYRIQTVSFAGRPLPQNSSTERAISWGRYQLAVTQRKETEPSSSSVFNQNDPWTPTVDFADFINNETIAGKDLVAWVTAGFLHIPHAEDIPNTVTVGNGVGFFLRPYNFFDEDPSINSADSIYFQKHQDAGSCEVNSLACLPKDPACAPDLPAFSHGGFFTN

[2] = target: T2, Amine oxidase [copper-containing] 3 (Bos taurus) (UniProt Q9TTK6); test: Inhibition of bovine plasma VAP-1 using 6-(5-Pheny1-2H-tetrazol-2-yl)hexan-1-amine as substrate at 10 uM preincubated with enzyme for 15 mins followed by substrate addition measured after 30 mins by UV-HPLC analysis relative to control; assay type: cell-free; details: time 45.0 min
T2 sequence (whole entry): T1 sequence (Q9TTK6 whole entry)

[3] = target: T1, Amine oxidase [copper-containing] 3; test: Inhibition of bovine plasma VAP-1 using 6-(5-Pheny1-2H-tetrazol-2-yl)hexan-1-amine as substrate preincubated with enzyme for 15 mins followed by substrate addition measured after 30 mins by UV-HPLC analysis; assay type: cell-free
[4] = target: T3, VAP-1 (amine oxidase [copper-containing] 3) (Bos taurus, UniProt Q9TTK6); test: Stability of compound assessed as bovine plasma VAP-1 mediated drug degradation by measuring parent compound remaining at 10 uM incubated for 30 mins by HPLC-MS analysis; assay type: ADME, cell-free; details: cattle, bovine plasma VAP-1 (amine oxidase [copper-containing] 3), read-out: Stability
T3 sequence (Q9TTK6 whole entry): T1 sequence (Q9TTK6 whole entry)

[5] = target: T3, VAP-1 (amine oxidase [copper-containing] 3); test: Stability of compound assessed as bovine plasma VAP-1 mediated drug degradation by measuring parent compound remaining at 10 uM incubated for 15 mins by HPLC-MS analysis; assay type: ADME, cell-free; details: cattle, bovine plasma VAP-1 (amine oxidase [copper-containing] 3), read-out: Stability
[6] = target: T3, VAP-1 (amine oxidase [copper-containing] 3); test: Stability of compound assessed as bovine plasma VAP-1 mediated drug degradation by measuring parent compound remaining at 10 uM incubated for 120 mins by HPLC-MS analysis; assay type: ADME, cell-free; details: cattle, bovine plasma VAP-1 (amine oxidase [copper-containing] 3), read-out: Stability
[7] = target: T3, VAP-1 (amine oxidase [copper-containing] 3); test: Stability of compound assessed as bovine plasma VAP-1 mediated drug degradation by measuring parent compound remaining at 10 uM incubated for 60 mins by HPLC-MS analysis; assay type: ADME, cell-free; details: cattle, bovine plasma VAP-1 (amine oxidase [copper-containing] 3), read-out: Stability
[8] = target: T2, Amine oxidase [copper-containing] 3 (Bos taurus); test: Inhibition of bovine plasma VAP-1 using 6-(5-Pheny1-2H-tetrazol-2-yl)hexan-1-amine as substrate at 10 uM measured after 30 mins by UV-HPLC analysis relative to control; assay type: cell-free
[9] = Selectivity index, ratio of IC50 for porcine kidney DAO to IC50 for bovine plasma VAP-1
[10] = target: T3, VAP-1 (amine oxidase [copper-containing] 3); test: Stability of compound assessed as bovine plasma VAP-1 mediated drug degradation by measuring parent compound remaining at 1 uM incubated for 120 mins by HPLC-MS analysis; assay type: ADME, cell-free; details: cattle, bovine plasma VAP-1 (amine oxidase [copper-containing] 3), read-out: Stability
[11] = Selectivity index, ratio of IC50 for human plasma VAP-1 to IC50 for bovine plasma VAP-1
[12] = target: T3, VAP-1 (amine oxidase [copper-containing] 3); test: Stability of compound assessed as bovine plasma VAP-1 mediated drug degradation by measuring parent compound remaining at 1 uM incubated for 60 mins by HPLC-MS analysis; assay type: ADME, cell-free; details: cattle, bovine plasma VAP-1 (amine oxidase [copper-containing] 3), read-out: Stability
[13] = target: T4, Amine oxidase [copper-containing] 3 (Homo sapiens, UniProt Q16853); test: Inhibition of human plasma VAP-1 using 6-(5-Pheny1-2H-tetrazol-2-yl)hexan-1-amine as substrate preincubated with enzyme for 15 mins followed by substrate addition measured after 120 mins by UV-HPLC analysis; assay type: cell-free
T4 sequence (Q16853 whole entry): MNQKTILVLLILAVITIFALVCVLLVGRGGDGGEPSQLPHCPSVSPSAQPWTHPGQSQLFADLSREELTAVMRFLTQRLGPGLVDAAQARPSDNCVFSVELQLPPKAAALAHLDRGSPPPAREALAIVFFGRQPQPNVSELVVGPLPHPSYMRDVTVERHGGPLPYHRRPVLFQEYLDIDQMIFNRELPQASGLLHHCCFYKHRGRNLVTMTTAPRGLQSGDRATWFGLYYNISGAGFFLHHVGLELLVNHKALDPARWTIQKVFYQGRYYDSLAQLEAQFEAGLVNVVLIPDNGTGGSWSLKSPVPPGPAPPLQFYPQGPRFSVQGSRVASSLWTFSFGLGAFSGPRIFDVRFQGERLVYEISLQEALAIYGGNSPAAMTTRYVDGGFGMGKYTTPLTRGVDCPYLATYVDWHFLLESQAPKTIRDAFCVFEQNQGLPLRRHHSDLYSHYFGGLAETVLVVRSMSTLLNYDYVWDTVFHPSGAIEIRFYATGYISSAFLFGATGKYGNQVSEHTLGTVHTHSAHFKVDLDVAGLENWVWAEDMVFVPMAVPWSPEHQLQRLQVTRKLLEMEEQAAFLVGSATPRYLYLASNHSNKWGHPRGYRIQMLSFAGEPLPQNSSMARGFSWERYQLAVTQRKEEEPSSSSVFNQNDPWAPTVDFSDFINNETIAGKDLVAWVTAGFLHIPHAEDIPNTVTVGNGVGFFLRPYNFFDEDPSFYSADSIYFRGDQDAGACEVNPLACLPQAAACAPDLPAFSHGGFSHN

[14] = target: T1, Amine oxidase [copper-containing] 3; test: Stability of compound assessed as bovine plasma VAP-1 mediated drug degradation by measuring formation of aldehyde metabolite at 1 to 10 uM incubated for 60 to 120 mins by HPLC-MS analysis; assay type: ADME, cell-free; details: cattle, dose lower 1 µM, time lower 60 min, dose upper 10 µM, time upper 120 min
[15] = target: T3, VAP-1 (amine oxidase [copper-containing] 3); test: Stability of compound assessed as bovine plasma VAP-1 mediated drug degradation by measuring parent compound remaining at 1 uM incubated for 15 mins by HPLC-MS analysis; assay type: ADME, cell-free; details: cattle, bovine plasma VAP-1 (amine oxidase [copper-containing] 3), read-out: Stability
[16] = target: T3, VAP-1 (amine oxidase [copper-containing] 3); test: Stability of compound assessed as bovine plasma VAP-1 mediated drug degradation by measuring parent compound remaining at 1 uM incubated for 30 mins by HPLC-MS analysis; assay type: ADME, cell-free; details: cattle, bovine plasma VAP-1 (amine oxidase [copper-containing] 3), read-out: Stability

Row | SMILES | IC50 [1] | inhibition [2] | IC50 [3] | inhibition [8] | other results
1 | NCC(=O)NCc1ccc(Cn2nnc(-c3ccccc3)n2)cc1 | 9.1 µM | – | 5.9 µM | – | remaining at 0.5 h, 10 µM [4]: 82%; remaining at 0.25 h, 10 µM [5]: 89%; remaining at 2 h, 10 µM [6]: 45%; remaining at 1 h, 10 µM [7]: 69%
2 | NCC(=O)Nc1ccc(CCn2nnc(-c3ccccc3)n2)cc1 | > 10 µM | 18% | > 10 µM | 20% | –
3 | Cl.NCC(=O)NCc1cccc(Cn2nnc(-c3ccccc3)n2)c1 | 0.37 µM | – | 0.16 µM | – | Ratio IC50 [9]: 50; remaining at 2 h, 1 µM [10]: < 5%; Ratio IC50 [11]: 2; remaining at 1 h, 1 µM [12]: < 5%; remaining at 0.5 h, 10 µM [4]: > 95%; remaining at 0.25 h, 10 µM [5]: > 95%; remaining at 2 h, 10 µM [6]: 84%; remaining at 1 h, 10 µM [7]: 93%; IC50 [13]: 2.1 µM; Stability [14]: Stable; remaining at 0.25 h, 1 µM [15]: 73%; remaining at 0.5 h, 1 µM [16]: 47%
4 | NCC(=O)NCCCCCCn1nnc(-c2ccsc2)n1 | 6.3 µM | – | 6.8 µM | – | –
5 | Cc1ccc(-c2nnn(CCCCCCNC(=O)CN)n2)cc1 | 4.7 µM | – | 5.1 µM | – | –
6 | NCC(=O)NCCCCCCn1nnc(-c2ccc(N3CCOCC3)cc2)n1 | 7.6 µM | – | 5.6 µM | – | –
7 | NCC(=O)NCCn1nnc(-c2ccccc2)n1 | – | 31% | > 10 µM | inactive | –

More lines, main results first:

Row | IC50 [1] | inhibition [2] | IC50 [3] | inhibition [8] | SMILES | other results
8 | 9.4 µM | 45% | > 10 µM | – | NCC(=O)NCCCCCn1nnc(-c2ccccc2)n1 | –
9 | > 10 µM | 33% | > 10 µM | 41% | NCC(=O)NCCCCCCn1cnc(-c2ccccc2)c1 | –
10 | > 10 µM | 18% | > 10 µM | 19% | NCC(=O)N1CCC(CCCn2nnc(-c3ccccc3)n2)CC1 | –
11 | > 10 µM | 37% | > 10 µM | 42% | NCC(=O)NCCCCCCn1ccc(-c2ccccc2)n1 | –
12 | 2.3 µM | – | 4.5 µM | – | CS(=O)(=O)c1ccc(-c2nnn(CCCCCCNC(=O)CN)n2)cc1 | Ratio IC50 [11]: 2; remaining at 0.5 h, 10 µM [4]: 63%; remaining at 0.25 h, 10 µM [5]: 82%; remaining at 2 h, 10 µM [6]: < 5%; remaining at 1 h, 10 µM [7]: 23%; IC50 [13]: 29 µM; Stability [14]: Unstable
13 | > 10 µM | 49% | > 10 µM | 40% | NCC(=O)NCCCCCCn1nnc(-c2ccccn2)n1 | –
14 | 6.2 µM | – | 7 µM | – | NCC(=O)NCCCCCCn1ncc(-c2ccccc2)n1 | –
15 | > 10 µM | 18% | > 10 µM | 30% | NCC(=O)NCc1ccccc1Cn1nnc(-c2ccccc2)n1 | remaining at 0.5 h, 10 µM [4]: 86%; remaining at 0.25 h, 10 µM [5]: 91%; remaining at 2 h, 10 µM [6]: 56%; remaining at 1 h, 10 µM [7]: 84%
16 | – | inactive | – | inactive | NCC(=O)NC1CCC(CCn2nnc(-c3ccccc3)n2)CC1 (stereo not drawn) | –
